The source of these data is US12565489B2, “Heterocyclyl pyrimidines and triazines as novel fungicides” (Bayer Aktiengesellschaft, priority 2020, dated 2026).

The first series in a line: Measurement of Log P values by HPLC on reversed phase columns (EEC directive 79/831 Annex V.A8). The series is classed as physicochemical. The conditions noted are these: LogP. As for the experimental part: Measurement of Log P values as provided herein was performed according to EEC directive 79/831 Annex V.A8 by HPLC (High Performance Liquid Chromatography) on reversed phase columns with the following methods: • ^[a] Log P value is determined by measurement of LC-UV, in an acidic range, with 0.1% formic acid in water and acetonitrile as eluent (linear gradient from 10% acetonitrile to 95% acetonitrile). • ^[b] Log P value is determined by measurement of LC-UV, in a neutral range, with 0.001 molar ammonium acetate solution in water and acetonitrile as eluent (linear gradient from 10% acetonitrile to 95% acetonitrile). • ^[c] Log P value is determined by measurement of LC-UV, in an acidic range, with 0.1% phosphoric acid and acetonitrile as eluent (linear gradient from 10% acetonitrile to 95% acetonitrile).
If more than one Log P value is available within the same method, all the values are given and separated by “+”.
Calibration was done with straight-chain alkan2-ones (with 3 to 16 carbon atoms) with known Log P values (measurement of Log P values using retention times with linear interpolation between successive alkanones). Lambda-max-values were determined using UV-spectra from 200 nm to 400 nm and the peak values of the chromatographic signals
Compound `COc1ccc(C[C@H](CCl)NC(=O)c2nc(C)ncc2Oc2cccc(C(F)(F)F)c2)c(Cl)c1` (racemic) [Compound 10-01] came in with a chromatographic logP of 4.47.

`Cc1ncc(Oc2cccc(Cl)c2)c(C(N)=NOC(C)(C)C(=O)c2ccc(F)cc2F)n1` [Compound 19-03] registered a chromatographic logP of 3.41. As to `Cc1ccc(C[C@H](CCl)NC(=O)c2nc(C)ncc2Oc2cccc(C(F)(F)F)c2)c(Cl)c1` (racemic) [Compound 10-02], the chromatographic logP was determined as 4.74. The compound `Cc1ncc(Oc2cccc(Cl)c2)c(C(N)=NO[C@H](F)C(=O)c2ccc(Cl)cc2)n1` (racemic) [Compound 19-04] had a chromatographic logP of 3.4. Still for that read-out and setting: then `Cc1ccc(C[C@H](CCl)NC(=O)c2nc(C)ncc2Oc2cccc(Cl)c2)c(Cl)c1` (racemic) [Compound 10-04], with 4.61; and `Cc1ncc(Oc2cccc(C(F)(F)F)c2)c(C(=O)N[C@@H](CCl)Cc2ccc(OC(F)F)cc2Cl)n1` (racemic) [Compound 10-08], with 4.51; and `CSc1ncc(Br)c(C2=NOC[C@@H](Cc3ccc(C)cc3C)N2)n1` (racemic) [Compound 7-02], with 4.05. Still for that read-out and setting: then `Cc1ncc(Oc2cccc(C(F)(F)F)c2)c(C(=O)N[C@@H](CCl)Cc2ccc(C(F)F)cc2Cl)n1` (racemic) [Compound 10-10], with 4.37; and `Cc1ncc(Oc2cccc(Cl)c2)c(C(N)=NO)n1` [Compound 17-01, 5-(3-chlorophenoxy)-N′-hydroxy-2-methyl-pyrimidine-4-carboxamidine], with 1.66; and `Cc1ncc(Oc2cccc(Cl)c2F)c(C(=O)O)n1` [Compound 1-08], with 1.91. Same read-out and setting: under `C#Cc1cccc(Oc2cnc(C)nc2C(=O)N[C@@H](CON2C(=O)c3ccccc3C2=O)Cc2ccc(C)cc2C)c1` (racemic) [Compound 3-02] stands 4.41; under `Cc1ccc(C[C@H](CCl)NC(=NO)c2nc(C)ncc2Oc2cccc(Cl)c2)c(Cl)c1` (racemic) [Compound 11-05], 4.28. For the compound `Cc1ccc(CC(CON2C(=O)c3ccccc3C2=O)NC(=O)c2nc(C3CC3)ncc2Oc2cccc(C(F)(F)F)c2)c(C)c1` (racemic) [Compound 3-01, 2-cyclopropyl-N-{(2RS)-1-(2,4-dimethylphenyl)-3-[(1,3-dioxo-1,3-dihydro-2H-isoindol-2-yl)oxy]propan-2-yl}-5-[3-(trifluoromethyl)phenoxy]pyrimidine-4-carboxamide], the chromatographic logP turned out to be 5.4.

The compound `Cc1ccc(C[C@H](N)CCN)c(C)c1` (racemic) [Compound 9-06] had a chromatographic logP of 0.23. As to `Cc1ccc(C[C@H](CCl)NC(=O)c2nc(C)ncc2Oc2cccc(C3CC3)c2F)c(Cl)c1` (racemic) [Compound 10-03], the chromatographic logP was found to be 4.93. Compound `Cc1ccc(CC(CCl)NC(=NO)c2nc(C)ncc2Br)c(C)c1` (racemic) [Compound 13-01, 5-bromo-N-[(2RS)-1-chloro-3-(2,4-dimethylphenyl)propan-2-yl]-N′-hydroxy-2-methylpyrimidine-4-carboximidamide] returned a chromatographic logP of 3.26. The same measure, in the same setting: under `Cc1ccc(C[C@H](CCl)NC(=NO)c2nc(C)ncc2Oc2cccc(C3CC3)c2F)c(C)c1` (racemic) [Compound 11-04] stands 4.51; under `O=C(O)c1nc(C2CC2)ncc1Oc1cccc(C(F)(F)F)c1` [Compound 1-02, 2-cyclopropyl-5-[3-(trifluoromethyl)phenoxy]pyrimidine-4-carboxylic acid], 2.49.

Staying with this series, now noted: method [a]: LC-UV, acidic range, 0.1% formic acid in water and acetonitrile as eluent; read-out: LogP.
For the compound `N[C@H](CCl)Cc1ccc(SC(F)(F)F)cc1` (racemic) [Compound 9-02], the chromatographic logP is 1.68.

Take `N[C@H](CCl)Cc1csc(C(F)(F)F)c1` (racemic) [Compound 9-03]: the chromatographic logP amounted to 1.29.

Still in this series, the particulars now being: reversed phase HPLC column, method [a]: LC-UV, acidic range, 0.1% formic acid in water and acetonitrile as eluent; read-out: LogP.
With `Cc1ccc(C[C@H](N)CON2C(=O)c3ccccc3C2=O)c(C)c1` (racemic) [Compound 2-01], the chromatographic logP stood at 1.55.
